Data on 1 compound can be found in paper PMC6980506, “Comparative pharmacokinetics and pharmacodynamics of the advanced Retinol-Binding Protein 4 antagonist in dog and cynomolgus monkey” (PLoS ONE, 2020).

Molecules are shown by their SMILES. Read-outs that look alike come from different tables or passages of the source.

As a reminder, the share remaining is the share of the starting amount still present when the sample was taken. As usually defined, the hepatocyte CLint is the capacity of the preparation to metabolise the compound, expressed as a volume cleared per time.

Data set [1] is described as follows: Metabolic stability in cynomolgus monkey liver microsomes. The data set is classed as in vitro ADME. To be noted: male, pH 7.4, Cyno liver microsomes, 1 mg/mL, read-out: Microsomal Stability (% Remaining at 30 min). The method, then: All measurements were done in duplicate. Pooled mixed gender human donor microsomes, male beagle dog microsomes and male cynomolgus monkey were obtained from BioIVT (Baltimore, MD). […] A mixture containing 50 mM potassium phosphate buffer pH 7.4 and 1 mg/mL liver microsomes was pre-warmed for 10 min at 37°C in a shaking water bath, followed by the addition of test compound. Final DMSO concentration in the reaction mix was 0.1%. […] The final volume of the reaction mixture was 800 μL, containing 1 mg/mL liver microsomes, and 1 μM test compound. Aliquots (100 μL) of reaction mixtures were removed from the incubation plate at pre-defined timepoints and mixed with 150 μL of ice-cold acetonitrile, incubated on ice for 15 min, and samples were centrifuged (3,600 rpm, 10 min, 4°C) to precipitate protein. The supernatants were diluted 1:1 (v/v) with water containing the internal standard and subjected to the LC/MS analysis.

Data set [2] is described as follows: Metabolic clearance in dog hepatocytes. The data set is classed as in vitro ADME. To be noted: male, beagle, cryopreserved hepatocytes, read-out: Hepatocyte CLint (intrinsic clearance). How it is done: All measurements were done in duplicate. Testosterone and 7-hydroxycoumarin were used as positive controls. Pooled cryopreserved human hepatocytes, cryopreserved male beagle dog hepatocytes, and cryopreserved male cynomolgus monkey hepatocytes were obtained from BioIVT (Baltimore, MD). Compound at 1 μM was incubated with 1 x 10^6 cells. Final DMSO concentration in the reaction mix was 0.1%. Aliquots (100 μL) of reaction mixtures were removed from the incubation plate at different timepoints and mixed with 150 μL of ice-cold acetonitrile. After incubation on ice for 15 min, the samples were centrifuged (3,600 rpm, 10 min, 4°C) to precipitate protein. The supernatants were diluted 1:1 (v/v) with water containing internal standards and subjected to the LC/MS analysis. Hepatic clearance was calculated using the well-stirred liver model

On the set-up of data set [3]: method as in PMID 26181715. To be noted: rat liver microsomes; cited from earlier work.
The subject of data set [4] is plasma RBP4. The experiment in a line: Plasma RBP4 lowering (ELISA) in beagle dog. The data set is classed as in vivo. How it is done:
(§1) Pharmacokinetic studies were conducted in male beagle dogs and male cynomolgus monkeys at SRI International, Menlo Park, CA. General procedures for animal care and housing were in accordance with the National Research Council (NRC) Guide for the Care and Use of Laboratory Animals (1996) and the Animal Welfare Standards incorporated in 9 CFR Part 3, 1991 and complied with guidelines set forth by the ARVO Animal Statement for the Use of Animals in Ophthalmic and Vision Research. During the course of the PK experiments, cynomolgus monkeys were individually housed in stainless steel primary enclosures in an AAALAC-accredited facility. Animals were fed a commercial monkey chow, and supplemental food was provided (fresh fruits, vegetables, seeds, and nuts). Reverse osmosis-purified drinking water was available at all times. Cynomolgus monkeys were maintained on a 12:12 hour light:dark cycle at the 64–84°F temperature and 30–70% humidity. Monkeys had access to enrichment opportunities (grooming devices, foraging devices, activity panels and mirrors) and were provided auditory stimuli and human interaction enrichment throughout the study. Blood samples were collected by venipuncture of a peripheral vein. Animals were acclimated to the squeeze back mechanism in their home cage by repeated, short periods of restraint during general husbandry procedures for at least 2 weeks prior to dosing. Animal were not removed from their cages for collection, and no anesthesia/analgesic agents were used for blood collection. […] For PK experiments, beagle dogs were individually housed in enclosed run (≥ 4 ft x 6 ft). Dogs were exposed to their daily ration of food, Harlan Teklad 2025C Certified Global 25% Protein Dog Diet. Water was provided from the public water supply (municipal tap water) ad libitum. Dogs were maintained on a 12:12 hour light:dark cycle at the 72–73°F temperature and 40–71% humidity. Every effort was made to minimize, if not eliminate, pain and suffering in all animals in this study. No restraining devices were used in blood collecting procedures. Dogs were gentle hand-held to restrain by trained technicians with the dogs foreleg extended for sample collection of blood from cephalic vein. Animals were awake during blood sample collection with no anesthesia/analgesic agents used, and positive reinforcement by the technician was provided following collection. […] All dogs were released back to the colony after the study was completed. Male beagle dogs and male cynomolgus monkey received a single i.v. dose of a test compound at 0.5 mg kg^−1 (dog) and 1 mg kg^−1 (monkey) or a single p.o. dose of a test compound of at 2 mg kg^−1 (dog) and 5 mg kg^−1 (monkey). The number of animals that was used in PK experiments is 3 per study group. Intravenous administration vehicle was 3% DMA/45% PEG300/12% ethanol/40% sterile water; p.o. vehicle was 2% Tween 80 in 0.9% saline. Blood was collected from dogs and monkeys at pre-dose and at 5, 15 and 30 min, and 1, 2, 4, 6, 8, 12, 24, 36 and 48 h post-dose in the i.v. arms and at 15 and 30 min, and 1, 2, 4, 6, 8, 12, 24, 36 and 48 h post-dose in the p.o. arm. […] Following protein extraction with acetonitrile, compound concentrations in plasma were measured by LC-MS/MS. The plasma drug level data were analyzed using WinNonlin software package; Model 201 (for i.v. bolus administration);was used for the analysis of i.v. data, and Model 200 (for extravascular administration) was used for the analysis of the p.o. data. […]
A general note: In an ELISA, binding on a coated surface is turned into a signal by an enzyme label.

Details of data set [5]: method as in PMID 26181715. Conditions: human liver microsomes; cited from earlier work. (In general: Microsomes from liver hold many membrane-bound enzymes, among them those of drug oxidation.)
In data set [6] the test system is PXR. On the set-up: method as in PMID 26181715. Conditions: cited from earlier work.
The subject of data set [7] is plasma RBP4. The experiment in a line: Plasma RBP4 lowering (ELISA) in cynomolgus monkey. The data set is classed as in vivo. How it is done: as §1

With `Cc1cc(C(=O)O)nc(N2C[C@H]3C[C@@H](c4ccccc4C(F)(F)F)C[C@H]3C2)n1` [BPN-14136], the amount remaining at 0.5 h, 1 μM in data set [1] stood at 95%. Further, the hepatocyte CLint at 1 μM in data set [2] is below 0.7 µL/min/1e6 cells. Besides, the “stability in liver microsomes, % remaining at 30 min” value in data set [3] and in data set [5] was above 90% each time. The “plasma RBP4 lowering” value in data set [4] (single 0.5 mg kg^−1 i.v. dose) is 50%. Also, the “reduction of RBP4” value came out at 53% in data set [4] (single 2 mg kg^−1 oral dose, 24 h); 42% in data set [4] (single 2 mg kg^−1 oral dose, 36 h); 39% in data set [4] (single 2 mg kg^−1 oral dose, 48 h). For the same compound, the “maximal plasma RBP4 reduction” value in data set [4] (single 2 mg kg^−1 oral dose, at 8 hours post-dosing) stood at 60%. Further, the PXR activation entry in data set [6] is given as “no PXR activation”. For the same compound, in data set [7] (single 1 mg kg^−1 i.v. dose), the “plasma RBP4 reduction” value came to 84%. In addition, the RBP4 reduction in data set [7] (single 5 mg kg^−1 oral dose, 24 h) is given as 97%; in data set [7] (single 5 mg kg^−1 oral dose, 36 h), 94%; in data set [7] (single 5 mg kg^−1 oral dose, 48 h), 91%. Further, the “maximum decrease in plasma RBP4” value in data set [7] (single 5 mg kg^−1 oral dose, at 12 hours after dosing) turned out to be 99%.
